Values of other authors, collected in US20040220281A1, “Treatment of hormone-refractory prostate cancer” (priority 2003, published 2004).
Read-outs that look alike come from different tables or passages of the source.

Legend:
CYP 3A4 = CYP 3A4 (Homo sapiens, UniProt P08684)
[1] = molecular target: p-glycoprotein (P-gp) pump (Homo sapiens, UniProt P08183)
[2] = in vivo
[3] = in vitro

Sequence of p-glycoprotein (P-gp) pump (P08183 whole entry): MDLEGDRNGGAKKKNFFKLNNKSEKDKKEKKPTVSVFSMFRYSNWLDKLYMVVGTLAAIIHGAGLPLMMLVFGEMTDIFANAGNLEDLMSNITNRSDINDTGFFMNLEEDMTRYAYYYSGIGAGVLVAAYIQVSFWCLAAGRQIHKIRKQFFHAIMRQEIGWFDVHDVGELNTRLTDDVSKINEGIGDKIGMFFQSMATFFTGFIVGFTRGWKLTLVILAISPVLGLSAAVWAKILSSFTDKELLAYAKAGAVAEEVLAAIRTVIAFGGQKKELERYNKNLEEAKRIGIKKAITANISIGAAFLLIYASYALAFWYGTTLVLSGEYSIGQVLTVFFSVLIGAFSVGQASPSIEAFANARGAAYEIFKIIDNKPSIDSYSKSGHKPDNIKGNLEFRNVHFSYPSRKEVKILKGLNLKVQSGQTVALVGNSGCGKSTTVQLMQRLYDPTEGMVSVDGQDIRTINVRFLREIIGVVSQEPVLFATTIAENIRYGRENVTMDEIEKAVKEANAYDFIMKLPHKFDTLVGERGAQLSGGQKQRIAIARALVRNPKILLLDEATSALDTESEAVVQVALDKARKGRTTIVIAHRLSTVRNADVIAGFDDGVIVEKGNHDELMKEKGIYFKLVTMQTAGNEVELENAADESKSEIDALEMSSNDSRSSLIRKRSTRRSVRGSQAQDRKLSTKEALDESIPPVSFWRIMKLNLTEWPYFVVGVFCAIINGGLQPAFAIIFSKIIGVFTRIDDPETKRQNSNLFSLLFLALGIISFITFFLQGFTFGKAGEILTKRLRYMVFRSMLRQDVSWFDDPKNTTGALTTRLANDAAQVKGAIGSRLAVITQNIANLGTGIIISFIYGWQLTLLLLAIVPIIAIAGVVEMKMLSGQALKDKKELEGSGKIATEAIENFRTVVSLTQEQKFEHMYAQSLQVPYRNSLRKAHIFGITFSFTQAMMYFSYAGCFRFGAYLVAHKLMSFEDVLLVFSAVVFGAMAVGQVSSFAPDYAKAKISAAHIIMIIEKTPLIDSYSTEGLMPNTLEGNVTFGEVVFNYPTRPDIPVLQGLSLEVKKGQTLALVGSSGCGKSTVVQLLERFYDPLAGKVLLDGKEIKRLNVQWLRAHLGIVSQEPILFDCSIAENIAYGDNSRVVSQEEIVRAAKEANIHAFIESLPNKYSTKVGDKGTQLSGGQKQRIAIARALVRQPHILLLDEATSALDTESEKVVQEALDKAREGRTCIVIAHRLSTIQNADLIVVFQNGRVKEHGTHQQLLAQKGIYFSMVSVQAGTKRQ
Sequence of CYP 3A4 (P08684 whole entry, species assumed): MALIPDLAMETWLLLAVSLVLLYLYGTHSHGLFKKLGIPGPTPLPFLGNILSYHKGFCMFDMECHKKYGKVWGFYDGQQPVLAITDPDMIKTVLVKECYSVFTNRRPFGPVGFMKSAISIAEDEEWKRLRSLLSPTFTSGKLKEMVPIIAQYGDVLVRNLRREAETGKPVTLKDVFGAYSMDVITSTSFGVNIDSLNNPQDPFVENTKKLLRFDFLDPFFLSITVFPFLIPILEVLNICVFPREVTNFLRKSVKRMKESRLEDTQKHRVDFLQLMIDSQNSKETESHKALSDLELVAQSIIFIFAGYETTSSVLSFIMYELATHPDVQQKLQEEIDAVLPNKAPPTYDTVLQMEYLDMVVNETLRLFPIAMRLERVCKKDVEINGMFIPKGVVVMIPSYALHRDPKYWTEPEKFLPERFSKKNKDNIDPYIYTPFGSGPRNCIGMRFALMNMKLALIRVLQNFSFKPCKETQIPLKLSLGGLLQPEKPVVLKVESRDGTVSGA

## CCN(CC)CCOc1ccc(Cc2ccccc2)cc1 [DPPE, N,N-diethyl-2-[4-(phenylmethyl)-phenoxy]ethanamine]
CYP 3A4
  substrate for CYP 3A4: potent substrate
[1]
  inhibition of the p-glycoprotein (P-gp) pump: inhibits
[2]
  potentiation of cytotoxicity of a variety of antineoplastic drugs: potentiates the cytotoxicity
[3]
  potentiation of cytotoxicity of a variety of antineoplastic drugs: potentiates the cytotoxicity
